Earlier results in publication PMC7933317 (Probiotics and antimicrobial proteins, 2021).

Test system: human red blood cells (RBCs)
Conditions: over the same concentration range; ref [30]

ALWKKLLKKLLKSAKKLG [C18G]
hemolysis of human RBCs: < 10%
